Assay results published in US20100249184A1, “INDUCTION AND/OR MAINTENANCE OF TUMOR DORMANCY BY DISRUPTION OF UROKINASE PLASMINOGEN ACTIVATOR RECEPTOR-INTEGRIN INTERACTION” (MOUNT SINAI SCHOOL OF MEDICINE, priority 2007, published 2010).

Tests used:
T-HEp3 cells = experiment: Adhesion assay to fibronectin, T-HEp3 cells; assay type: cell-based, human; details: peptide 20 or 200 μM, 15 min
HEK293 cells = experiment: Adhesion assay to fibronectin, transfected HEK293 cells; assay type: cell-based; details: HEK293-uPAR^wt cells; peptide 20 or 200 μM, 15 min
Protocol: HEK293 cells transiently transfected with pcDNA3.1, or expression constructs for uPAR^wt or uPAR^S245A were detached 40 hrs after transfection and 1.5×10^5 cells were seeded on fibronectin (4 μg/ml in a 48-well plate) for 15 and 30 min at 37° C. Cell adhesion was quantified as described in the Examples. The results shown are mean (SD) of 2 individual experiments, 4 determinations for each cell type. Two additional experiments were performed with similar results. […] The cells were divided into 2 aliquots and one aliquot was incubated for 10 min with anti-uPAR(R^2) antibody (10 μg/ml). Cells (1.2×10^5) were seeded onto wells of a 48-well plate and the adhesion to fibronectin tested as in FIG. 4A. The results are mean (SD) of 6 determinations. […] Cells were seeded onto 96-well plates and adhesion to fibronectin tested as in FIG. 4A. The results are mean (SD) of 3 determinations for each peptide. The experiment was repeated twice.
HEK293 cells were transiently transfected with pcDNA3.1, uPAR^wt, or uPAR^S245A. […] Following 15 and 30 min incubation at 37° C., the cells were washed twice with PBS with CaCl2 and MgCl2, fixed with 1% glutaraldehyde, stained with 1% crystal violet for 10 min, washed, dried, destained with 10% methanol and 5% acetic acid, and the OD of the extracted dye was measured in triplicate using the ELISA microplate-reader ELX800 from Bio-Tek Instruments. […]

[1] = biological target: T1, purified human α5β1-integrin (Homo sapiens, UniProt P05556+P08648); experiment: Solid phase dot-ELISA: α5β1-integrin binding to immobilized uPAR peptides and suPAR; details: for α5β1-integrin binding to immobilized peptide: peptide immobilized on nitrocellulose, α5β1-integrin 750 ng/ml; for reduction of integrin binding to immobilized uPAR: α5β1-integrin pre-incubated 15 min with 100 fold molar excess of peptide, suPAR 1.5 μg
T1 construct: purchased Chemicon International (Temecula, Calif.)
Protocol: FIGS. 1A-H show the interaction between α5β1-integrin and immobilized uPAR and uPAR-derived synthetic peptides through solid-phase dot-ELISA. […] Bound integrin was detected with anti-α5 integrin antibody followed by goat anti-rabbit IgG (H+L) HRP conjugated secondary antibody and developed with enhanced chemiluminescence (“ECL”). FIG. 1B is a graph showing that binding of integrin to suPAR is saturable. SuPAR (1.5 μg) was immobilized on nitrocellulose membrane in triplicates, incubated with 0, 0.1, 0.5, 1, 2, and 4 μg/ml of α5β1-integrin and tested for integrin binding as in FIG. 1A. The dots were scanned with NIH Image. Mean and SE are shown. […] Peptides representing regions located in each of the three uPAR-domains were immobilized, incubated with α5β1-integrin, and analyzed as in FIG. 1A. Only peptide 240-248 binds α5β1-integrin. FIG. 1D is a graph showing that peptide 240-248 inhibits integrin binding to suPAR. The α5β1-integrin (750 ng/ml) was pre-incubated for 15 min at room temperature with 100 fold molar excess of 240-248 or 17-24 peptides, or with no peptide (Control) and the mixtures were applied to immobilized suPAR (1.5 μg), 2 dots per mixture, and developed as in FIG. 1A. The dots were scanned with NIH Image. The results (bars) show % of control, the lines show range. FIG. 1E is a graph showing binding of α5β1- and α3β1-integrin to suPAR and peptide 240-248. Dot-ELISA was performed in duplicate as in FIG. 1A, except that purified α5β1-integrin and α3β1-integrin (750 ng/ml) were used. Bound integrins were detected with the appropriate previously titrated antibodies followed by goat anti-rabbit IgG (H+L) HRP conjugated secondary antibody and detection with ECL. The graph represents the mean and range of two values: α5β1-integrin binding to peptide 240-248 (▪) or SuPAR (▴); α3β1-integrin binding to peptide 240-248 ([…]) and SuPAR (x). […] Peptide 240-248 (domain III), 17-24 (domain I), and the S245A mutant of peptide 240-248 were immobilized and tested for integrin binding as in FIG. 1A. FIGS. 1G-H show the crystal structure of human uPAR shown as a surface representation. The three individual domains of uPAR in FIG. 1G are indicated as follows: D1 is on the right side, DII is on the top of the model, and Diii is on the left of the model. In FIG. 1H, the order of the domains is inversed. […] The location of the COOH-terminal in uPAR domain III harboring the GPI-anchor is indicated by the arrow (FIG. 1H). FIGS. 1G-H were created by the program PyMol (DeLano Scientific) using the coordinates 1YWH.
FIGS. 2A-B show solid phase dot-ELISA of suPAR. […] Binding was detected as in FIG. 1A and the dots were scanned with NIH Image. Mean of the two-scanned value for each suPAR concentration are shown in the bottom panel. Mutation of residues in the 239-249 sequence reduced the integrin binding by ˜50 to 94%. suPAR^E33A (▪), suPAR^wt (▴), suPAR^R239A (♦), suPAR^H249A (x), suPAR^Q248A (∘), suPAR^M246A ([…]), suPAR^S245A (□).
Synthetic uPAR-derived peptides and mutant proteins were diluted to 0.5, 1, and 2 μg/100 μl of PBS. […] The strips, pinned to the bottom of a plastic box, were washed with TBS with 0.1% Tween 20, overlaid with 500 μl of rabbit anti-integrin α5 polyclonal antibody (1:650) for 1 hr at RT, washed with TBST twice, incubated with goat anti-rabbit IgG (H+L) HRP conjugated secondary antibody (1:2000) for 1 hr, washed 3 times with TBST, and developed with ECL. The dots were scanned with NIH image.

T1 sequence (P08648 42-894 limits assumed): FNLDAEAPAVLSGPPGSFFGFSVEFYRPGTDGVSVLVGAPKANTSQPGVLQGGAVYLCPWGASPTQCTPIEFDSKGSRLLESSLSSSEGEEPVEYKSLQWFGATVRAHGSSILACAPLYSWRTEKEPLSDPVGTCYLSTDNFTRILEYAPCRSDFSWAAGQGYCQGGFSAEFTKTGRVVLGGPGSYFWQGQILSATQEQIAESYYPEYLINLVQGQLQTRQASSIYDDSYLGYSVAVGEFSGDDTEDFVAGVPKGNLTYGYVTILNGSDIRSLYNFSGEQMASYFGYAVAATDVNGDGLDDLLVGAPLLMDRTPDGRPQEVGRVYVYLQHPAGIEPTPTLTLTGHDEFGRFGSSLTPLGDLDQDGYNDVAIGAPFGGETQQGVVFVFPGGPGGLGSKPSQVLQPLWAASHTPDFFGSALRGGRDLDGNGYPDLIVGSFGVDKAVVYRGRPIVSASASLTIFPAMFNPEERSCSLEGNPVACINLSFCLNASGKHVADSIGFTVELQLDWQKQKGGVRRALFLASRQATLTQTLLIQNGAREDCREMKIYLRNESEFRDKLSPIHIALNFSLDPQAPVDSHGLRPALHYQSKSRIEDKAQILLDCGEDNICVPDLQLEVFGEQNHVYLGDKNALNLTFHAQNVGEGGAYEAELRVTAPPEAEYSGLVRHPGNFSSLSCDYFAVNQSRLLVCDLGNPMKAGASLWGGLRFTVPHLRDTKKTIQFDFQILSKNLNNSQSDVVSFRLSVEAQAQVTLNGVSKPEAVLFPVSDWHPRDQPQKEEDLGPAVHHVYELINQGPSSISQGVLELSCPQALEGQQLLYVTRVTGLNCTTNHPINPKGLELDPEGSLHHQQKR
T1 sequence (P08648 895-1049 limits assumed): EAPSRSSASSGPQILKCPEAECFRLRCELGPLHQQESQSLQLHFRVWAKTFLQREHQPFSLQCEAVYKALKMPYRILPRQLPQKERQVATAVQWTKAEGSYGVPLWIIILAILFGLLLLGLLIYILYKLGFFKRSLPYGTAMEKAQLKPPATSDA
T1 sequence (P05556 21-798): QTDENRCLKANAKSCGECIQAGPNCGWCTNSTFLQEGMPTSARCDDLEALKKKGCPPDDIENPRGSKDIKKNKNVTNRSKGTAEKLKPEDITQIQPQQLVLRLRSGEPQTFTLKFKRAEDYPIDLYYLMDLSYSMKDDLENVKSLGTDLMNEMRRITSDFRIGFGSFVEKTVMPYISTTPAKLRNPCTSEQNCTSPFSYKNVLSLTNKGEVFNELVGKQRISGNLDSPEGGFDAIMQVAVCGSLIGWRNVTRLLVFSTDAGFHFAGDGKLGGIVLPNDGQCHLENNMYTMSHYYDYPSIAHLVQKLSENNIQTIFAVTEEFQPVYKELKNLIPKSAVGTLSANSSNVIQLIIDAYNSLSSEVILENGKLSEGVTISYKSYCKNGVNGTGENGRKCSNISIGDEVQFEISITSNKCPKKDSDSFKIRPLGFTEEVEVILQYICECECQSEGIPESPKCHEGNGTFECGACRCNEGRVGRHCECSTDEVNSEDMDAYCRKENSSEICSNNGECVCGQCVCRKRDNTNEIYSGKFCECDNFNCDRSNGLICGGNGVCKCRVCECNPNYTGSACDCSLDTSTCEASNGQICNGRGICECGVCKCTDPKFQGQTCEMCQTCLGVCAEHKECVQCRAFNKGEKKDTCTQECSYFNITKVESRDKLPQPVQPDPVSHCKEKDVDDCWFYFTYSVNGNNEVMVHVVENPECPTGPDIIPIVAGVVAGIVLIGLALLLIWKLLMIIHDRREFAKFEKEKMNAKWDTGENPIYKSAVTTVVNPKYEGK

Row | Substance | adhesion to fibronectin (T-HEp3 cells) | adhesion to fibronectin (HEK293 cells) | α5β1-integrin binding to immobilized peptide [1] | reduction of integrin binding to immobilized uPAR [1]
1 | peptide 17-24: synthetic uPAR-derived peptide, domain I amino acid 17-24: CALGQDLC (SEQ ID NO:5); negative control [reference compound] | no effect | no effect | no binding | negligible effect
2 | peptide 240-248: synthetic uPAR-derived peptide, domain III residues 240-248: GCATASMCQ (SEQ ID NO:9) | reduced adhesion to fibronectin | reduced adhesion to fibronectin | bound α5β1-integrin in a dose-dependent fashion | more than 70%
